Laboratory results taken from PubChem BioAssay (NCI).
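All cell lines were grown in 96-well plates and treated with compound for 48 hours. GI50 = concentration required for 50% inhibition of growth. Definition used: TGI = concentration required for complete inhibition of growth.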

Key:
Assay in all cases: DTP human tumour cell line panel, 48 h; in the data active = GI50 below about 0.43 µM; inactive = the rest
M14 melanoma = tested on: M14 melanoma
HT29 colon = tested on: HT29 colon
TK-10 renal = tested on: TK-10 renal
U251 CNS = tested on: U251 CNS
SK-MEL-2 melanoma = tested on: SK-MEL-2 melanoma
786-0 renal = tested on: 786-0 renal
ACHN renal = tested on: ACHN renal
HOP-62 NSCLC = tested on: HOP-62 NSCLC
SK-OV-3 ovarian = tested on: SK-OV-3 ovarian
NCI-H522 lung = tested on: NCI-H522 lung
SW-620 colon = tested on: SW-620 colon
CAKI-1 renal = tested on: CAKI-1 renal
A498 renal = tested on: A498 renal
COLO 205 colon = tested on: COLO 205 colon
IGROV1 ovarian = tested on: IGROV1 ovarian
HCT-116 colon = tested on: HCT-116 colon
T-47D breast = tested on: T-47D breast
SNB-19 CNS = tested on: SNB-19 CNS
MDA-MB-231 breast = tested on: MDA-MB-231 breast
MOLT-4 leukemia = tested on: MOLT-4 leukemia
UACC-62 melanoma = tested on: UACC-62 melanoma
SK-MEL-5 melanoma = tested on: SK-MEL-5 melanoma
SR leukemia = tested on: SR leukemia
LOX IMVI melanoma = tested on: LOX IMVI melanoma
SF-295 CNS = tested on: SF-295 CNS
NCI-H23 lung = tested on: NCI-H23 lung
SK-MEL-28 melanoma = tested on: SK-MEL-28 melanoma
NCI-H226 lung = tested on: NCI-H226 lung
K-562 leukemia = tested on: K-562 leukemia
SNB-75 CNS = tested on: SNB-75 CNS
OVCAR-4 ovarian = tested on: OVCAR-4 ovarian
OVCAR-8 ovarian = tested on: OVCAR-8 ovarian
HCT-15 colon = tested on: HCT-15 colon
NCI/ADR-RES ovarian = tested on: NCI/ADR-RES ovarian
MDA-MB-435 = tested on: MDA-MB-435
A549 NSCLC = tested on: A549 NSCLC
OVCAR-5 ovarian = tested on: OVCAR-5 ovarian
HL-60(TB) leukemia = tested on: HL-60(TB) leukemia
SN12C renal = tested on: SN12C renal
UACC-257 melanoma = tested on: UACC-257 melanoma
EKVX NSCLC = tested on: EKVX NSCLC
SF-268 CNS = tested on: SF-268 CNS
CCRF-CEM leukemia = tested on: CCRF-CEM leukemia
MALME-3M melanoma = tested on: MALME-3M melanoma
NCI-H460 lung = tested on: NCI-H460 lung
HOP-92 NSCLC = tested on: HOP-92 NSCLC
SF-539 CNS = tested on: SF-539 CNS
HCC-2998 colon = tested on: HCC-2998 colon
DU-145 prostate = tested on: DU-145 prostate
RPMI-8226 leukemia = tested on: RPMI-8226 leukemia
MCF7 breast = tested on: MCF7 breast
PC-3 prostate = tested on: PC-3 prostate
OVCAR-3 ovarian = tested on: OVCAR-3 ovarian
KM12 colon = tested on: KM12 colon
UO-31 renal = tested on: UO-31 renal
HS 578T breast = tested on: HS 578T breast
BT-549 breast = tested on: BT-549 breast

CCN1C(=O)N(CC)C2SC(N/N=C/c3cccs3)=NC21 (stereo not drawn)
> 23300 nM: TGI (HOP-92 NSCLC)
386 nM: TGI (NCI-H522 lung)
> 26800 nM: TGI (SR leukemia)
active: GI50 (M14 melanoma) 192 nM | GI50 (HT29 colon) 260 nM | GI50 (U251 CNS) 318 nM | GI50 (SK-MEL-2 melanoma) 360 nM | GI50 (NCI-H522 lung) 81.1 nM | GI50 (SW-620 colon) 249 nM | GI50 (CAKI-1 renal) 191 nM | GI50 (A498 renal) 131 nM | GI50 (COLO 205 colon) 248 nM | GI50 (HCT-116 colon) 281 nM | GI50 (UACC-62 melanoma) 141 nM | GI50 (SR leukemia) 54.6 nM | GI50 (SF-295 CNS) 262 nM | GI50 (NCI-H23 lung) 418 nM | GI50 (K-562 leukemia) 91.2 nM | GI50 (SNB-75 CNS) 122 nM | GI50 (OVCAR-8 ovarian) 398 nM | GI50 (HCT-15 colon) 202 nM | GI50 (NCI/ADR-RES ovarian) 356 nM | GI50 (MDA-MB-435) 33.8 nM | GI50 (HL-60(TB) leukemia) 186 nM | GI50 (CCRF-CEM leukemia) 360 nM | GI50 (NCI-H460 lung) 333 nM | GI50 (SF-539 CNS) 198 nM | GI50 (HCC-2998 colon) 313 nM | GI50 (RPMI-8226 leukemia) 348 nM | GI50 (MCF7 breast) 119 nM | GI50 (PC-3 prostate) 345 nM | GI50 (OVCAR-3 ovarian) 333 nM | GI50 (KM12 colon) 232 nM | GI50 (HS 578T breast) 286 nM | GI50 (BT-549 breast) 211 nM
705 nM: TGI (A498 renal)
658 nM: TGI (HL-60(TB) leukemia)
inactive: GI50 (786-0 renal) 643 nM | GI50 (ACHN renal) 581 nM | GI50 (HOP-62 NSCLC) 470 nM | GI50 (SK-OV-3 ovarian) 532 nM | GI50 (IGROV1 ovarian) 579 nM | GI50 (T-47D breast) > 45100 nM | GI50 (SNB-19 CNS) 428 nM | GI50 (MDA-MB-231 breast) 540 nM | GI50 (MOLT-4 leukemia) 465 nM | GI50 (SK-MEL-5 melanoma) 523 nM | GI50 (LOX IMVI melanoma) 446 nM | GI50 (SK-MEL-28 melanoma) > 19700 nM | GI50 (NCI-H226 lung) 1430 nM | GI50 (A549 NSCLC) 431 nM | GI50 (OVCAR-5 ovarian) 527 nM | GI50 (SN12C renal) 653 nM | GI50 (UACC-257 melanoma) 1050 nM | GI50 (EKVX NSCLC) 655 nM | GI50 (SF-268 CNS) 1710 nM | GI50 (HOP-92 NSCLC) 922 nM | GI50 (DU-145 prostate) 483 nM | GI50 (UO-31 renal) 595 nM
2070 nM: TGI (OVCAR-3 ovarian)
205 nM: TGI (MDA-MB-435)
723 nM: TGI (COLO 205 colon)
> 93800 nM: TGI (HCC-2998 colon)
1270 nM: TGI (BT-549 breast)
> 32600 nM: TGI (U251 CNS)
5430 nM: TGI (HCT-116 colon)
3200 nM: TGI (HT29 colon)
> 100000 nM: TGI (M14 melanoma) | TGI (TK-10 renal) | TGI (SK-MEL-2 melanoma) | TGI (786-0 renal) | TGI (ACHN renal) | TGI (HOP-62 NSCLC) | TGI (SK-OV-3 ovarian) | TGI (SW-620 colon) | TGI (CAKI-1 renal) | TGI (IGROV1 ovarian) | TGI (T-47D breast) | TGI (SNB-19 CNS) | TGI (MDA-MB-231 breast) | TGI (MOLT-4 leukemia) | TGI (UACC-62 melanoma) | TGI (LOX IMVI melanoma) | TGI (SF-295 CNS) | TGI (NCI-H23 lung) | TGI (SK-MEL-28 melanoma) | TGI (NCI-H226 lung) | TGI (K-562 leukemia) | TGI (OVCAR-4 ovarian) | TGI (HCT-15 colon) | TGI (NCI/ADR-RES ovarian) | TGI (A549 NSCLC) | TGI (OVCAR-5 ovarian) | TGI (SN12C renal) | TGI (UACC-257 melanoma) | TGI (EKVX NSCLC) | TGI (SF-268 CNS) | TGI (CCRF-CEM leukemia) | TGI (MALME-3M melanoma) | TGI (DU-145 prostate) | TGI (RPMI-8226 leukemia) | TGI (MCF7 breast) | TGI (PC-3 prostate) | TGI (KM12 colon) | TGI (UO-31 renal) | TGI (HS 578T breast)
823 nM: TGI (SF-539 CNS)
3360 nM: TGI (SK-MEL-5 melanoma)
